Target: T1, HA-VP16-TraR fusion (TraR from Agrobacterium strain A348 fused to VP16 activation domain; pMON53030) (UniProt P06492+P33905)
T1 construct: PCR fragments containing open reading frames are cloned into an expression construct; expressed in transfected cells; host or cells: carrot protoplasts from cell suspension culture, transient transfection
Test: Transient GUS reporter assay in transfected carrot protoplasts with VP16-TraR effector
Format: cell-based, Agrobacterium tumefaciens
Set-up: + inducer (average of the GUS activities) / + inducer (GUS activity, average) / GUS activity, average (with AHL or analog at the stated concentration) / GUS activity, average (+ inducer) / GUS activity, average: unit not given here
Conditions: reporter TraA8(4X)-GUS + 35S-VP16-TraR; for GUS activity, average ('- inducer'): 1 µM of the AHL or analog; for GUS activity, average (with AHL or analog at the stated concentration): 5 µM of the AHL or analog; for GUS activity, average: 25 µM of the AHL or analog
Text: Carrot protoplasts were transfected with the TraA8 (4X)- GUS reporter construct with the 35S-VP16-TraR activator gene and tested for GUS induction by application of wild type AHL and the various AHL analogs described in Example 8. Table 8: Transient assays in carrot protoplasts of AHL analogs

[1] = ratio of GUS activity at 12.5 µM to that at 5 µM
[2] = ratio of GUS activity at 75 µM to that at 25 µM
[3] = ratio of GUS activity at […] to that at 1 µM

| SMILES | GUS activity, average ('- inducer') | GUS activity, average (with AHL or analog at the stated concentration) | GUS activity, average (+ inducer) (12.5 µM of the AHL or analog) | GUS activity, average | GUS activity, average (+ inducer) (75 µM of the AHL or analog) | fold +/- [1] [fold] | fold +/- [2] [fold] | fold +/- [3] [fold] | GUS activity, average (+ inducer) (78 µM as printed) | fold +/- (ratio of GUS activity at 78 µM to that at 25 µM) [fold] |
| --- | --- | --- | --- | --- | --- | --- | --- | --- | --- | --- |
| CCCCCC(=O)C(C)C(=O)N[C@@H](CCO)C(=O)O (stereo partly drawn) [compound 7, N-(α-Methyl-b-ketooctanoyl)-(S)-homoserine] | 180.2 | 1071.5 | 2746.0 | 2486.3 | 3209.7 | 2.6 | 1.3 | 1.8 |  |  |
| CCCCCC(=O)C(CC)C(=O)N[C@@H](CCO)C(=O)O (stereo partly drawn) [compound 19, N-(α-Ethyl-b-ketooctanoyl)-(S)-homoserine] | 469.6 | 2239.4 | 5377.3 | 6732.3 |  | 2.4 |  | 2.8 | 7569.1 | 1.1 |
| CCCCCCC(C(C)=O)C(=O)N[C@@H](CCO)C(=O)O (stereo partly drawn) [compound 26, N-(α-Hexyl-b-ketobutanoyl)-(S)-homoserine] | 184.7 | 387.6 | 1812.5 | 1515.3 | 2879.9 | 4.7 | 1.9 | 1.2 |  |  |
| CCCCCC(=O)C(CCCC)C(=O)N[C@@H](CCO)C(=O)O (stereo partly drawn) [compound 25, N-(α-Butyl-b-ketooctanoyl)-(S)-homoserine] | 256.9 | 309.3 | 284.7 | 224.2 | 252.9 | 0.9 | 1.1 | 2.1 |  |  |
